Measured values published in publication PMC6785188 (ACS chemical neuroscience, 2019).

How the values were obtained:
D1 [1] = molecular target: T1, D1 (Homo sapiens, UniProt P21728); experiment: D1R GS-mediated cAMP accumulation GloSensor assay; assay type: cell-based; conditions: for activity in GS-cAMP accumulation (in words): GloSensor; for Emax: read-out: GS-cAMP EMAX
D1 [2] = molecular target: T1, D1; experiment: BRET β-arrestin2 recruitment assay; assay type: cell-based; conditions: for activity in β-arrestin2 recruitment (in words): BRET; for Emax: read-out: β-arrestin2 EMAX
6-OHDA-lesioned mice = experiment: Motor activity study in 6-OHDA-lesioned mice; assay type: in vivo; conditions: 5 mg/kg i.p.

T1 sequence (P21728 whole entry): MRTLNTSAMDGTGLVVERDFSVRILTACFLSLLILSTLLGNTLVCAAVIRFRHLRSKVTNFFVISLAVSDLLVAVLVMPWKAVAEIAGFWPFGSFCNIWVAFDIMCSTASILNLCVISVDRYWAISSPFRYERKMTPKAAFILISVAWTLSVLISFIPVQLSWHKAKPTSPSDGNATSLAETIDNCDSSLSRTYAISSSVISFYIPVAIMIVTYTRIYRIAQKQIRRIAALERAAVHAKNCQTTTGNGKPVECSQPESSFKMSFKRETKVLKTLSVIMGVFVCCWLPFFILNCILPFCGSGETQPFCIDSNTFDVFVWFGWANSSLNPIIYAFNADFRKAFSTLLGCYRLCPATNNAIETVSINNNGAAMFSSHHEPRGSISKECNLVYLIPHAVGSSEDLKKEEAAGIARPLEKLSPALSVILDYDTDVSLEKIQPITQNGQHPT

Row | activity in GS-cAMP accumulation (in words) (D1 [1]) | activity in β-arrestin2 recruitment (in words) (D1 [2]) | EC50 (D1 [1]) [nM] | Emax (D1 [1]) [%] | EC50 (D1 [2]) [nM] | Emax (D1 [2]) [%] | SMILES | forward locomotion compared to vehicle after 1 h (6-OHDA-lesioned mice; 61–90 min interval) | number of contralateral rotations vs vehicle (6-OHDA-lesioned mice; 90 min)
1 |  | no activity | 176 | 81 |  |  | Cc1cc(Oc2nccc3occc23)ccc1-c1cc[nH]c(=O)c1 [Compound 3, 4-(4-(Furo[3,2-c]pyridin-4-yloxy)-2-methylphenyl)pyridin-2(1H)-one] |  | 
2 |  |  | 133 | 96 | > 10000 |  | Cc1cc(Oc2nccc3occc23)ccc1-c1cc(=O)[nH]cn1 [Compound 5, 6-(4-(Furo[3,2-c]pyridin-4-yloxy)-2-methylphenyl)pyrimidin-4(3H)-one] |  | 
3 |  | no activity | > 10000 |  |  |  | Cc1cc(Oc2nccc3occc23)ccc1-c1cc(N)nc(N)n1 [Compound 8, 6-(4-(Furo[3,2-c]pyridin-4-yloxy)-2-methylphenyl)pyrimidine-2,4-diamine] |  | 
4 |  |  | 9 | 78 | 2090 | 37 | Cc1cc(Oc2nccc3occc23)ccc1-c1cc(=O)[nH]c(=O)[nH]1 [Compound 9, 6-(4-(Furo[3,2-c]pyridin-4-yloxy)-2-methylphenyl)pyrimidine-2,4(1H,3H)-dione] |  | 
5 |  |  | 1.8 | 88 | 151 | 19 | Cc1cc(Oc2nccc3occc23)ccc1-c1c(C)cnc(=O)n1C [Compound 11, 6-(4-(Furo[3,2-c]pyridin-4-yloxy)-2-methylphenyl)-1,5-dimethylpyrimidin-2(1H)-one] |  | 
6 |  |  | 1.1 | 92 | 196 | 63 | Cc1cc(Oc2nccc3occc23)ccc1-c1cn[nH]c(=O)c1C [Compound 12, 5-(4-(Furo[3,2-c]pyridin-4-yloxy)-2-methylphenyl)-4-methylpyridazin-3(2H)-one] |  | 
7 |  | no activity | 205 | 82 |  |  | Cc1cc(Oc2nccc3occc23)ccc1-c1c(C)cn[nH]c1=O [Compound 13, 4-(4-(Furo[3,2-c]pyridin-4-yloxy)-2-methylphenyl)-5-methylpyridazin-3(2H)-one] |  | 
8 |  |  | 0.08 | 95 | 13 | 65 | CCn1c(-c2ccc(Oc3nccc4occc34)cc2C)c(C)c(=O)[nH]c1=O [Compound 17, 1-Ethyl-6-(4-(furo[3,2-c]pyridin-4-yloxy)-2-methylphenyl)-5-methylpyrimidine-2,4(1H,3H)-dione] |  | 
9 |  | no activity | 0.5 | 84 |  |  | Cc1cc(Oc2nccc3occc23)ccc1-c1c(C)c(=O)[nH]c(=O)n1CC1CC1 [Compound 19, 1-(Cyclopropylmethyl)-6-(4-(furo[3,2-c]pyridin-4-yloxy)-2-methylphenyl)-5-methylpyrimidine-2,4(1H,3H)-dione] |  | 
10 |  | no activity | 0.8 | 82 |  |  | Cc1cc(Oc2nccc3occc23)ccc1-c1c(C)c(=O)[nH]c(=O)n1C1CCC1 [Compound 20, 1-Cyclobutyl-6-(4-(furo[3,2-c]pyridin-4-yloxy)-2-methylphenyl)-5-methylpyrimidine-2,4(1H,3H)-dione] |  | 
11 |  | no activity | 33 | 100 |  |  | Cc1cc(-c2c(C)c(=O)[nH]c(=O)n2C)ccc1Oc1nccc2occc12 [Compound 26, 6-(4-(Furo[3,2-c]pyridin-4-yloxy)-3-methylphenyl)-1,5-dimethylpyrimidine-2,4(1H,3H)-dione] |  | 
12 |  |  | 0.08 | 96 | 40 | 75 | Cc1c(-c2ccc(Oc3nccc4occc34)cc2)n(C)c(=O)[nH]c1=O [Compound 27, 6-(4-(Furo[3,2-c]pyridin-4-yloxy)phenyl)-1,5-dimethylpyrimidine-2,4(1H,3H)-dione] |  | 
13 | inactive | inactive |  |  |  |  | Cc1cc(O)ccc1-c1c(C)c(=O)[nH]c(=O)n1C [Compound 28, 6-(4-Hydroxy-2-methylphenyl)-1,5-dimethylpyrimidine-2,4-(1H,3H)-dione] |  | 
14 | inactive | inactive |  |  |  |  | COc1ccc(-c2c(C)c(=O)[nH]c(=O)n2C)c(C)c1 [Compound 29, 6-(4-Methoxy-2-methylphenyl)-1,5-dimethylpyrimidine-2,4-(1H,3H)-dione] |  | 
15 |  |  |  | 107 |  | 40 | Cc1cc(Oc2ccccn2)ccc1-c1c(C)c(=O)[nH]c(=O)n1C [Compound 30, 1,5-Dimethyl-6-(2-methyl-4-(pyridin-2-yloxy)phenyl)pyrimidine-2,4(1H,3H)-dione] |  | 
16 |  |  | 2 | 108 | 52 | 27 | COc1ccnc(Oc2ccc(-c3c(C)c(=O)[nH]c(=O)n3C)c(C)c2)c1 [Compound 31, 6-(4-((4-Methoxypyridin-2-yl)oxy)-2-methylphenyl)-1,5-dimethylpyrimidine-2,4(1H,3H)-dione] |  | 
17 |  |  |  | 118 |  | 30 | Cc1cc(Oc2ncccc2C(F)(F)F)ccc1-c1c(C)c(=O)[nH]c(=O)n1C [Compound 32, 1,5-Dimethyl-6-(2-methyl-4-((3-(trifluoromethyl)pyridin-2-yl)-oxy)phenyl)pyrimidine-2,4(1H,3H)-dione] |  | 
18 |  | no activity | 23 | 59 |  |  | COc1ccnc(Oc2ccc(-c3c(C)c(=O)[nH]c(=O)n3C)c(C)c2)c1C#N [Compound 33, 2-(4-(3,5-Dimethyl-2,6-dioxo-1,2,3,6-tetrahydropyrimidin-4-yl)-3-methylphenoxy)-4-methoxynicotinonitrile] |  | 
19 |  | no activity | 105 | 82 |  |  | Cc1cc(Oc2nccc(Cl)c2C(F)(F)F)ccc1-c1c(C)c(=O)[nH]c(=O)n1C [Compound 34, 6-(4-((4-Chloro-3-(trifluoromethyl)pyridin-2-yl)oxy)-2-methyl-phenyl)-1,5-dimethylpyrimidine-2,4(1H,3H)-dione] |  | 
20 |  |  | 0.4 | 115 | > 10000 |  | Cc1cc(Oc2nccc3ccccc23)ccc1-c1c(C)c(=O)[nH]c(=O)n1C [Compound 38, 6-(4-(Isoquinolin-1-yloxy)-2-methylphenyl)-1,5-dimethylpyrimidine-2,4(1H,3H)-dione] |  | 
21 |  |  | 7 | 104 | 13 | 30 | Cc1cc(Oc2nccc3sccc23)ccc1-c1c(C)c(=O)[nH]c(=O)n1C [Compound 39, 1,5-Dimethyl-6-(2-methyl-4-(thieno[3,2-c]pyridin-4-yloxy)-phenyl)pyrimidine-2,4(1H,3H)-dione] |  | 
22 |  |  |  |  |  |  | Oc1cc2c(c(Cl)c1O)CCNCC2c1ccccc1 (stereo not drawn) [SKF81297, reference compound] | no longer displayed significantly increased forward locomotion | significant increases

Row | SMILES | activity in GS-cAMP accumulation (in words) (D1 [1]) | activity in β-arrestin2 recruitment (in words) (D1 [2]) | EC50 (D1 [1]) [nM] | Emax (D1 [1]) [%] | EC50 (D1 [2]) [nM] | Emax (D1 [2]) [%] | forward locomotion compared to vehicle after 1 h (6-OHDA-lesioned mice; 61–90 min interval) | number of contralateral rotations vs vehicle (6-OHDA-lesioned mice; 90 min)
23 | Cc1cc(Oc2nccc3occc23)ccc1C1=CCN(C)CC1 [Compound 1, 4-(3-Methyl-4-(1-methyl-1,2,3,6-tetrahydropyridin-4-yl)-phenoxy)furo[3,2-c]pyridine] | largely inactive | largely inactive |  |  |  |  |  | 
